{
  "source": "patent US12558366B2",
  "about": "“Bacterial DNA gyrase inhibitors and methods of use thereof” (THE FLORIDA INTERNATIONAL UNIVERSITY BOARD OF TRUSTEES, priority 2021, dated 2026)",
  "key": {"[1]": {"target": "T1, E. coli DNA gyrase (Escherichia coli, UniProt P0AES4+P0AES6)", "T1 sequence (P0AES4 whole entry, one chain of several)": "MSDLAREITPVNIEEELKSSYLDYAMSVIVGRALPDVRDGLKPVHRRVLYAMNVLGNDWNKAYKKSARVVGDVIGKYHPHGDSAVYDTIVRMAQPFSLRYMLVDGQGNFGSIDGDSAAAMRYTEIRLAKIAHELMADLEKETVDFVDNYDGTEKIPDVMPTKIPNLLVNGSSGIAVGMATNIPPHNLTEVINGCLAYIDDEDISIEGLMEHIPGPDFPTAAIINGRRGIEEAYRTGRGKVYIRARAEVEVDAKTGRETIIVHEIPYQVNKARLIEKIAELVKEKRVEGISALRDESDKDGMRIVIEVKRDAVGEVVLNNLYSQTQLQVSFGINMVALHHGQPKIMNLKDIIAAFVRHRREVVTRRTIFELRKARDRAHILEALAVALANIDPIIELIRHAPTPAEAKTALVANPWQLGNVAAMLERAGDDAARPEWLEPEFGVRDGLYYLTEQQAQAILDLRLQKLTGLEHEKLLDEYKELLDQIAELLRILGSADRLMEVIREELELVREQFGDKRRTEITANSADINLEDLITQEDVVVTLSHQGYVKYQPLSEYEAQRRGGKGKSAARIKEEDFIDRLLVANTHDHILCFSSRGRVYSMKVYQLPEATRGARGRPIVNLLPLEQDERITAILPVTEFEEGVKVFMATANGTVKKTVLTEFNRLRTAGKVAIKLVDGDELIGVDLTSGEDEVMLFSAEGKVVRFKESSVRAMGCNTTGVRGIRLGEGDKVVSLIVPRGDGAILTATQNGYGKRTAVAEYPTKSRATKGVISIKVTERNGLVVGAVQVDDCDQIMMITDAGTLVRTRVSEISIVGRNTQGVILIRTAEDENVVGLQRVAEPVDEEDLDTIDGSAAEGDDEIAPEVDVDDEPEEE", "assay": "E. coli DNA gyrase inhibition (agarose gel-based and/or SDFQ-based, not specified per value)", "format": "biochemical"}, "[2]": {"test_system": "Mtb", "assay": "Mtb inhibition (antibacterial activity)", "format": "cell-based, Mycobacterium tuberculosis"}, "[3]": {"test_system": "E. coli imp", "assay": "microbe, parasite or virus in culture", "format": "cell-based", "conditions": "Escherichia coli", "method": "Antibacterial minimum inhibitory concentrations (MICs) were obtained from three independent experiments using broth microdilution methods in 96-well plates according to Clinical and Laboratory Standards Institute guidelines. Cells were culture from singles colonies in MHIIB medium for 24 h at 37° C. in agitation (200 RPM). The cultures were then diluted using the same media to reach an OD600 of 0.1. Then, 50 μL of the diluted cultures were added to the plates holding 50 μL of serially diluted compounds in MHIIB. The plates were incubated at 37° C. for 20 h. The starting inoculum was fixated to 10^5 colony-forming units per ml."}, "[4]": {"target": "T1, E. coli DNA gyrase", "assay": "Agarose gel-based DNA gyrase inhibition assays", "format": "biochemical", "method": "100 ng of DNA gyrase was used to supercoil the rx pAB1 in the presence of different concentrations of a gyrase inhibitor. […] Samples were analyzed by electrophoresis in 1% w/v agarose gels followed by ethidium bromide staining and photographed under UV light."}, "[5]": {"conditions": "Table 2 values, read-out: IC50 ( ≤15 μM) IC50"}, "[6]": {"conditions": "read-out: Minimum Inhibitory Concentration E. coli imp"}},
  "note": "Like-named read-outs stand apart in the source and are kept apart here.",
  "data": [
    {"compound": "C[n+]1c(-c2ccc(C=NNC(=O)c3ccc(C(=O)NN=Cc4ccc(-c5cn6ccccc6[n+]5C)cc4)cc3)cc2)cn2ccccc21", "note": "[Compound 229]", "values": [
      {"measurement": "IC50", "setting": "[1]", "result": "25 to 50", "unit": "µM"}
    ]},
    {"compound": "Cc1cccc2c1N=C(O)C2/N=N/c1ccc(C(=O)O)cc1", "note": "(centres unmarked) [Compound 128]", "values": [
      {"measurement": "activity against Mtb", "setting": "[2]", "result": "Mtb active hits"}
    ]},
    {"compound": "CC(C)(CS(=O)(=O)[O-])NC(=O)CC[N+](C)(C)CCO", "note": "[Compound 42]", "values": [
      {"measurement": "IC50", "setting": "[1]; [5]", "result": 2.18, "unit": "µM"}
    ]},
    {"compound": "O=C(O)C(Cc1ccccc1)N1C(=O)/C(=C\\C=C\\c2ccco2)SC1=S", "note": "(centres unmarked) [Compound 157]", "values": [
      {"measurement": "IC50", "setting": "[1]; [5]", "result": 10, "unit": "µM"},
      {"measurement": "MIC", "setting": "[3]; [6]", "result": 100, "unit": "µM"}
    ]},
    {"compound": "COc1cc2ccccc2cc1C(=O)NC(=S)Nc1ccc(C(=O)O)cc1", "note": "[Compound 72]", "values": [
      {"measurement": "IC50", "setting": "[1]; [5]", "result": 12.4, "unit": "µM"}
    ]},
    {"compound": "O=c1ccc2cc3ccoc3cc2o1", "note": "[psoralen, reference compound]", "values": [
      {"measurement": "inhibition of E. coli DNA gyrase activities", "setting": "[1]", "result": "not a gyrase inhibitor"}
    ]},
    {"compound": "O=C1/C(=C\\c2ccc(O)c([N+](=O)[O-])c2)SC(=S)N1Cc1ccccc1", "note": "[Compound 192]", "values": [
      {"measurement": "IC50", "setting": "[1]; [5]", "result": 8, "unit": "µM"}
    ]},
    {"compound": "O=C(O)c1ccc(/N=N/C2C(O)=Nc3ccc(F)cc32)cc1", "note": "(centres unmarked) [Compound 127]", "values": [
      {"measurement": "activity against Mtb", "setting": "[2]", "result": "Mtb active hits"}
    ]},
    {"compound": "NN=C1c2ccccc2C(=O)C1C(=O)C(c1ccccc1)c1ccccc1", "note": "(centres unmarked) [Compound 211]", "values": [
      {"measurement": "inhibition of E. coli DNA gyrase activities", "setting": "[4]; 50 μM of compounds", "result": "inhibited"},
      {"measurement": "inhibition of E. coli DNA gyrase activities", "setting": "[4]; 200 μM of compounds", "result": "completely inhibited"},
      {"measurement": "IC50", "setting": "[1]", "result": "50 to 200", "unit": "µM"}
    ]},
    {"compound": "mithramycin [Compound 225, reference compound]", "values": [
      {"measurement": "inhibition of E. coli DNA gyrase activities", "setting": "[4]; 50 μM of compounds", "result": "completely inhibited"},
      {"measurement": "inhibition of E. coli DNA gyrase activities", "setting": "[4]; 200 μM of compounds", "result": "completely inhibited"},
      {"measurement": "inhibition of E. coli DNA gyrase activities", "setting": "[1]", "result": "strongly inhibited"}
    ]},
    {"compound": "Cc1cc(C)c2sc(NC(=O)C3CC3)nc2c1", "note": "[Compound 73]", "values": [
      {"measurement": "IC50", "setting": "[1]; [5]", "result": 7.86, "unit": "µM"}
    ]},
    {"compound": "CSc1nc(SCC(=O)O)c2sc3nc(-c4ccccc4)c4c(c3c2n1)CCC4", "note": "[Compound 19]", "values": [
      {"measurement": "IC50", "setting": "[1]; [5]", "result": 3.55, "unit": "µM"},
      {"measurement": "activity against Mtb", "setting": "[2]", "result": "Mtb active hits"}
    ]},
    {"compound": "CNC(=O)[C@H]1O[C@@H](n2cnc3c(NCc4cccc(I)c4)nc(Cl)nc32)[C@H](O)[C@@H]1O", "note": "[Compound 76]", "values": [
      {"measurement": "IC50", "setting": "[1]; [5]", "result": 2.53, "unit": "µM"}
    ]},
    {"compound": "O=C1NC(=S)SC1=Cc1cc(Cl)cc(Cl)c1O", "note": "[Compound 207]", "values": [
      {"measurement": "inhibition of E. coli DNA gyrase activities", "setting": "[4]; 50 μM of compounds", "result": "inhibited"},
      {"measurement": "inhibition of E. coli DNA gyrase activities", "setting": "[4]; 200 μM of compounds", "result": "completely inhibited"},
      {"measurement": "IC50", "setting": "[1]", "result": "50 to 200", "unit": "µM"}
    ]},
    {"compound": "CN1C[C@H](CNC(=O)OCc2ccccc2)C[C@@H]2c3cccc4c3c(cn4C)C[C@H]21", "note": "[Metergoline, reference compound]", "values": [
      {"measurement": "inhibition of gyrase activities", "setting": "[4]; at 100 and 200 μM", "result": "inhibits gyrase activities"}
    ]},
    {"compound": "O=C(O)C(c1ccccc1)N1C(=O)/C(=C\\c2ccc(-c3cccc(Cl)c3)o2)SC1=S", "note": "(centres unmarked) [Compound 176]", "values": [
      {"measurement": "IC50", "setting": "[1]; [5]", "result": 2, "unit": "µM"}
    ]},
    {"compound": "Cc1cccc2c1N=C(O)C2=NNc1ccc(S(C)(=O)=O)cc1", "note": "[Compound 109]", "values": [
      {"measurement": "inhibition of E. coli DNA gyrase activities", "setting": "[4]; 50 μM of compounds", "result": "completely inhibited"}
    ]},
    {"compound": "O=C(O)CCN1C(=O)/C(=C/c2ccc(-c3nc4ccccc4s3)o2)SC1=S", "note": "[Compound 27]", "values": [
      {"measurement": "IC50", "setting": "[1]; [5]", "result": 1.74, "unit": "µM"}
    ]},
    {"compound": "CCCCCCCCOC(=O)c1cc(O)c(O)c(O)c1", "note": "[Octyl gallate]", "values": [
      {"measurement": "MIC", "setting": "[3]; read-out: MIC (μg/ml) E. coli imp", "result": 14.1, "unit": "µg/mL"}
    ]},
    {"compound": "N#C/C(=C\\c1coc2ccc(O)cc2c1=O)C(=O)/N=c1\\[nH]c2ccccc2s1", "note": "[Compound 165]", "values": [
      {"measurement": "IC50", "setting": "[1]; [5]", "result": 6.25, "unit": "µM"}
    ]},
    {"compound": "O=[N+]([O-])c1cc(/C=N/Nc2nc3ccccc3[nH]2)c(O)cc1O", "note": "[Compound 159]", "values": [
      {"measurement": "IC50", "setting": "[1]; [5]", "result": 6.25, "unit": "µM"}
    ]},
    {"compound": "O=C(O)c1cccc(-c2ccc(/C=c3/sc4nc5ccccc5n4c3=O)o2)c1", "note": "[Compound 47]", "values": [
      {"measurement": "IC50", "setting": "[1]; [5]", "result": 1.87, "unit": "µM"},
      {"measurement": "activity against Mtb", "setting": "[2]", "result": "Mtb active hits"}
    ]},
    {"compound": "O=C(/C=C/c1ccco1)Nc1cccc2cccnc12", "note": "[Compound 164]", "values": [
      {"measurement": "MIC", "setting": "[3]; [6]", "result": 100, "unit": "µM"}
    ]},
    {"compound": "O=C1OC2(c3ccccc31)c1cc(I)c(O)c(I)c1Oc1c2cc(I)c(O)c1I", "note": "[Compound 253, Erythrosin B]", "values": [
      {"measurement": "IC50", "setting": "[1]; [5]", "result": 3.12, "unit": "µM"}
    ]},
    {"compound": "O=C(NN1C(=O)/C(=C\\C=C\\c2ccco2)SC1=S)c1ccccc1O", "note": "[Compound 180]", "values": [
      {"measurement": "MIC", "setting": "[3]; [6]", "result": 100, "unit": "µM"}
    ]},
    {"compound": "COc1cc(/C=N/N=c2\\[nH]c3ccccc3s2)cc([N+](=O)[O-])c1O", "note": "[Compound 178]", "values": [
      {"measurement": "IC50", "setting": "[1]; [5]", "result": 1.56, "unit": "µM"},
      {"measurement": "activity against Mtb", "setting": "[2]", "result": "Mtb active hits"}
    ]},
    {"compound": "O=C(O)CCCCCN1C(=O)/C(=C\\c2ccc(-c3ccc(Cl)cc3)o2)SC1=S", "note": "[Compound 36]", "values": [
      {"measurement": "IC50", "setting": "[1]; [5]", "result": 7.42, "unit": "µM"}
    ]},
    {"compound": "Cc1c2cc(O)c(=O)cc-2oc2cc(O)c(O)cc12", "note": "[Compound 75]", "values": [
      {"measurement": "IC50", "setting": "[1]; [5]", "result": 5.28, "unit": "µM"}
    ]}
  ]
}
